Legend:
Type in all cases: functional
Enterococcus faecium [1] = experiment: Antibacterial activity against linezolid-resistant Enterococcus faecium 303
[2] = test system: Staphylococcus epidermidis; experiment: Antibacterial activity against methicillin-resistant Staphylococcus epidermidis ATCC 35984
Staphylococcus aureus [3] = experiment: Antibacterial activity against linezolid-resistant Staphylococcus aureus O-128
Enterococcus faecium [4] = experiment: Antibacterial activity against Enterococcus faecium 575
[5] = test system: Staphylococcus epidermidis; experiment: Antibacterial activity against linezolid-resistant Staphylococcus epidermidis 1117174
Enterococcus faecium [6] = experiment: Antibacterial activity against Enterococcus faecium ATCC 19434
Staphylococcus aureus [7] = experiment: Antibacterial activity against […] Staphylococcus aureus ATCC 13709 SMITH
Staphylococcus aureus [8] = experiment: Antibacterial activity against methicillin-resistant Staphylococcus aureus 562
Enterococcus faecalis [9] = experiment: Antibacterial activity against linezolid-resistant Enterococcus faecalis ATCC 29212
Staphylococcus aureus [10] = experiment: Antibacterial activity against methicillin-resistant Staphylococcus aureus 1201984
Staphylococcus aureus [11] = experiment: Antibacterial activity against Staphylococcus aureus FDA 209P
Enterococcus faecium [12] = experiment: Antibacterial activity against vancomycin-resistant Enterococcus faecium 32/133
Enterococcus faecalis [13] = experiment: Antibacterial activity against Enterococcus faecalis ATCC 51299
Escherichia coli [14] = experiment: Antibacterial activity against Escherichia coli MG1655; conditions: K-12 substr. MG1655
Enterococcus faecalis [15] = experiment: Antibacterial activity against Enterococcus faecalis ATCC 29212
Staphylococcus aureus [16] = experiment: Antibacterial activity against methicillin-resistant Staphylococcus aureus USA300 BAA-1556
Enterococcus faecium [17] = experiment: Antibacterial activity against Enterococcus faecium ATCC 35667
[18] = test system: Staphylococcus epidermidis; experiment: Antibacterial activity against Staphylococcus epidermidis ATCC 12228
Staphylococcus aureus [19] = experiment: Antibacterial activity against Staphylococcus aureus ATCC 29213
Enterococcus faecium [20] = experiment: Antibacterial activity against vancomycin-resistant Enterococcus faecium 6A
Enterococcus faecium [21] = experiment: Antibacterial activity against vancomycin-resistant Enterococcus faecium R1
Enterococcus faecium [22] = experiment: Antibacterial activity against Enterococcus faecium NLNZ 572
Escherichia coli [23] = experiment: Antibacterial activity against TolC-deficient Escherichia coli
[24] = test system: Staphylococcus epidermidis; experiment: Antibacterial activity against linezolid-resistant Staphylococcus epidermidis 1089191
Staphylococcus aureus [25] = experiment: Antibacterial activity against Staphylococcus aureus Mu50 ATCC 700699
Enterococcus faecium [26] = experiment: Antibacterial activity against vancomycin-resistant Enterococcus faecium 03080 DS
Staphylococcus aureus [27] = experiment: Antibacterial activity against methicillin-resistant Staphylococcus aureus DB-00026
Enterococcus faecalis [28] = experiment: Antibacterial activity against Enterococcus faecalis ATCC 19434
Enterococcus faecium [29] = experiment: Antibacterial activity against vancomycin-resistant Enterococcus faecium 31/132
Enterococcus faecium [30] = experiment: Antibacterial activity against vancomycin-resistant Enterococcus faecium 134
Enterococcus faecium [31] = experiment: Antibacterial activity against Enterococcus faecium 45/146
Staphylococcus aureus [32] = experiment: Antibacterial activity against PVL positive Staphylococcus aureus

Measured: MIC

O=C1NC(=O)C2(Cc3cc(-c4ccc(N5C[C@H](CO)OC5=O)cc4F)ccc3N3CCCCC32)C(=O)N1 (some centres not stated)
0.25 µg/mL: Enterococcus faecium [21]
4 µg/mL: Staphylococcus aureus [11] | Staphylococcus aureus [16] | Staphylococcus aureus [19] | Enterococcus faecium [22] | Escherichia coli [23] | Staphylococcus aureus [27]
32 µg/mL: [5]
1 µg/mL: Enterococcus faecalis [13] | Enterococcus faecium [17] | Enterococcus faecium [20] | Enterococcus faecium [26] | Enterococcus faecium [31]
> 32 µg/mL: Escherichia coli [14] | [24]
8 µg/mL: Enterococcus faecium [1]
≤ 1 µg/mL: [2]
16 µg/mL: Staphylococcus aureus [3] | Staphylococcus aureus [7]
2 µg/mL: all other assays above
